What all share (assay type): cell-based
One assay relates to glucose transporter. Kind of assay: Inhibition by cytochalasin B of 2-deoxyglucose uptake into matured adipocytes. Particulars: FIG. 13. How it is done:
The influence of cytochalasin B on 2-deoxyglucose uptake into matured adipocytes during the stimulation of the sample into the cells was tested in the same manner as in the method described in Example 5 on whether the enhancing action for glucose uptake of the ethanol extract fraction from root portions of Angelica keiskei koidz. shown in Example 16 is inhibited by cytochalasin B, which is an inhibitor of glucose transporter.
Specifically, as a sample, a group with addition of a dimethyl sulfoxide solution of the ethanol extract fraction from root portions of Angelica keiskei koidz. so as to have a final concentration of 0.1% was set. Here, there were set a group without addition of the sample as a negative control, and a group with addition of insulin so as to have a final concentration of 1 μg/mL as a positive control. Furthermore, a group with addition of cytochalasin B (manufactured by nacalai tesque, 10435-81) so as to have a final concentration of 40 μM was set concurrently to the timing of the setting of the group with addition of insulin in each group. Thereafter, the amount of 2-deoxy-[1,2-^3H(N)]-glucose uptake into the cells was determined in the same manner.

For assay [1], the system named is Preadipocyte cell line 3T3-L1. Kind of assay: Induction of adipocyte differentiation, amount of biosynthesized triglyceride. The note with it: positive control, 4 μl of aqueous solution containing 5 mg/mL insulin. On the procedure: The induction of an adipocyte differentiation was carried out by partially modifying the above-mentioned method of Rubin C. S. et al. Preadipocyte cell line 3T3-L1 (ATCC CCL-92.1) was suspended in a 10% bovine fetal serum (manufactured by GIBCO)-containing Dulbecco's modified Eagle's medium (manufactured by Sigma, D6046) containing 200 μM ascorbic acid (hereinafter referred to as A-D-MEM) so as to have a concentration of 4×10^3 cells/mL, and the suspension was put in each well of a 12-well microtiter plate in an amount of 2 mL per well. The cells were cultured at 37° C. for 7 days in the presence of 5% carbon dioxide gas. The medium was exchanged with the same medium on the second day and the fourth day. […] Here, there were set a group with addition of 4 μl of an aqueous solution containing 5 mg/mL insulin (manufactured by TAKARA BIO INC.) as a positive control, and a group with addition of water as a negative control. […] The amount of biosynthesized triglyceride in the adipocytes was determined as an index of induction of differentiation into matured adipocytes, and as evaluation of insulin-mimetic action. […] The precipitate was dissolved in 100 μl of isopropanol, and thereafter the amount of triglyceride contained in 10 μl of the resulting solution was determined with Triglyceride G-Test (manufactured by Wako Pure Chemical Industries, Ltd., code 276-69801). […]

Assay [2] deals with matured adipocytes (3T3-L1 cells). The assay is described as follows: Synergistic enhancing action of glucose uptake with low concentration-insulin in matured adipocytes. The note with it: insulin alone, final concentration 0.001 μg/mL; FIG. 14. On the procedure:
As evaluation of the synergistic enhancing action of glucose uptake by the ethanol extract fraction from root portions of Angelica keiskei koidz. prepared in Example 14 and a low concentration-insulin, the amount of 2-deoxyglucose uptake into matured adipocytes during the stimulation of the sample in the adipocytes was determined partly in the same manner as in the method described in Example 5.
The matured adipocytes were prepared in the same manner as in the method described in item (1) of Example 5.
After the termination of the culture, the medium was removed, and the cells were washed twice with 0.1% (w/v) bovine serum albumin (manufactured by Sigma, A8022)-containing Dulbecco's modified Eagle's medium. Thereafter, 1 mL of the same medium containing a dimethyl sulfoxide solution of the ethanol extract fraction from root portions of Angelica keiskei koidz. having a final concentration of 0.02% was added thereto. The cells were cultured overnight at 37° C. in the presence of 5% carbon dioxide gas. A group without containing the ethanol extract fraction from root portions of Angelica keiskei koidz. was set as a negative control. […] Thereafter, the amount of 2-deoxy-[1,2-^3H(N)]-glucose uptake into the cells was determined in the same manner as in the method described in item (2) of Example 5.

The test system is the same in assay [3]. The assay is described as follows: Glucose uptake by insulin stimulation into adipocytes induced to be differentiated by the sample. Particulars: adipocytes differentiated by insulin (4 μl of 5 mg/mL); insulin stimulation 1 μg/mL; FIG. 15. The text has this: Adipocytes which were induced to be differentiated by the ethanol extract fraction from Angelica keiskei koidz. prepared in Example 14 were obtained, and thereafter it was confirmed whether the glucose uptake into the cells was enhanced by insulin stimulation.
Specifically, as a sample, there was set a group with addition of a dimethyl sulfoxide solution of the ethanol extract fraction from root portions of Angelica keiskei koidz. to have a final concentration of 0.05%. A group with addition of 4 μl of an aqueous solution containing 5 mg/mL insulin (manufactured by TAKARA BIO INC.) was set as a positive control. […]
Next, the amount of 2-deoxyglucose uptake into the resulting matured adipocytes during the insulin stimulation in the adipocytes was determined in the same manner as in the method described in Example 5.
Specifically, a group without addition of insulin or a group with addition of insulin so as to have a final concentration of 1 μg/mL was set in each of the matured adipocytes. Thereafter, the amount of 2-deoxy-[1,2-^3H(N)]-glucose uptake into the cells was determined in the same manner.

Assay [4] has the same test system. The assay is described as follows: Enhancing action for glucose uptake (2-deoxyglucose uptake) into matured adipocytes. Particulars: positive control, insulin final concentration 1 μg/mL.

“Also recorded” adds a separate entry of the source.

As for `C=C1[C@@H](C)[C@H]2[C@H](Cc3ccccc3)NC(=O)[C@]23OC(=O)/C=C/[C@H](O)CCC[C@@H](C)C/C=C/[C@H]3[C@@H]1O` [cytochalasin B], the “inhibition of 2-deoxy-[1,2-3H(N)]-glucose uptake” value in the assay on glucose transporter (cytochalasin B final concentration 40 μM added concurrently with each group) is reported as “almost completely inhibited”.

Take insulin: in assay [1], the “induction of triglyceride biosynthesis (adipocyte differentiation)” value is “induction of triglyceride biosynthesis could be confirmed”. Besides, in the assay on glucose transporter (insulin 1 μg/mL plus cytochalasin B 40 μM), the “2-deoxy-[1,2-3H(N)]-glucose uptake with concurrent cytochalasin B” value was “almost completely inhibited”. The “enhancement of 2-deoxy-[1,2-3H(N)]-glucose uptake” value in assay [2] was “enhancement of 2-deoxy-[1,2-^3H(N)]-glucose uptake was found”. In addition, the “enhancement of 2-deoxy[1,2-3H(N)]-glucose uptake by insulin stimulation” value in assay [3] is “enhancement of 2-deoxy[1,2-^3H(N)]-glucose uptake was found by insulin stimulation”. Further, the “enhancement of 2-deoxy[1,2-3H(N)]-glucose uptake” value in assay [4] is “enhancement of 2-deoxy[1,2-^3H(N)]-glucose uptake was found; also recorded: enhancement of 2-deoxy-[1,2-^3H(N)]-glucose uptake was found”.
